Reference: patent publication US12673035B2, “Solid dosage forms of elafibranor” (Genfit, priority 2023, dated 2026)

Experiments:
rat = assay: Acute toxicity study, single oral doses, rat; assay type: in vivo
Method: (§1) According to acute toxicity study results, it can be concluded that elafibranor is extremely safe when administered as single oral doses in rat and mouse, since no sign of toxicity was detected up to the dose of 1000 mg/kg.

mouse = assay: Acute toxicity study, single oral doses, mouse; assay type: in vivo
Method: as §1

[1] = test system: patients with PBC and inadequate response to Ursodeoxycholic acid (UDCA); assay: Phase 2 double-blind, randomized, placebo-controlled trial in PBC; assay type: in vivo, human; conditions: for mean relative change from baseline to endpoint in serum ALP / median relative change from baseline to endpoint in the pruritus VAS / treatment effect estimate vs placebo, serum ALP (supportive analysis, ANCOVA with baseline ALP as covariate) / mean relative change from baseline to endpoint in GGT / treatment effect estimate vs placebo, GGT (non-parametric randomization-based ANCOVA) / response rates defined by at least 10%, 20% and 40% decrease in ALP from baseline to endpoint, compared to placebo: 12 weeks; for mean relative change from baseline to endpoint in GGT / treatment effect estimate vs placebo, GGT (non-parametric randomization-based ANCOVA) / response rates defined by at least 10%, 20% and 40% decrease in ALP from baseline to endpoint, compared to placebo: mITT set; for response rates defined by at least 10%, 20% and 40% decrease in ALP from baseline to endpoint, compared to placebo: Fishers exact test, p<0.001; for response rate as defined by Paris I risk scores (ALP≤3×ULN, AST≤2×ULN, bilirubin within normal limits) / response rate as defined by Paris II risk scores (ALP≤1.5×ULN, AST≤1.5×ULN, bilirubin within normal limits) / response rate as defined by Toronto I risk scores (ALP≤1.67×ULN) / response rate as defined by Toronto II risk scores (ALP≤1.75×ULN): baseline to endpoint
Method: This example describes a double-blind, randomized, placebo-controlled trial to evaluate the efficacy and safety of elafibranor 80 mg and 120 mg once daily (qd) versus placebo in a PBC population.
The study included a screening visit, followed by 12 weeks of double-blind treatment period. Patients attended study visits at randomization, Week 2, 4, 8, 12 during the treatment period.
(§2) Elafibranor was administered per os, once daily at 80 mg or 120 mg, for 12 weeks, in the form of tablets of the invention (Formulations 4 and 3). The elafibranor 120 mg and 80 mg tablets contained elafibranor (active ingredient) and excipients (microcrystalline cellulose, povidone, croscarmellose, anhydrous colloidal silica, magnesium stearate, Opadry® II white). The white tablets were provided to the participants in aluminum blisters.
The primary objectives were to compare the effect of daily oral administration of elafibranor 80 mg and 120 mg on changes in serum alkaline phosphatase (ALP) to that of placebo in patients with PBC and inadequate response to Ursodeoxycholic acid (UDCA).
The primary endpoint of the study was to evaluate the efficacy of elafibranor 80 mg or 120 mg with respect to relative change from baseline in serum ALP levels compared to placebo.
Absolute changes in serum ALP levels were monitored from Baseline to week 2, 4, 8 and 12.
The treatment effect estimate was −52.0% (95% CI [−62.5; −41.5]) for the elafibranor 80 mg treatment group and −43.9% (95% CI [−55.7; −32.1]) for the elafibranor 120 mg treatment group.
The primary efficacy supportive analysis conducted using an ANCOVA with baseline ALP as a covariate was consistent with the primary efficacy analysis. The treatment effect estimate was −51.4% (95% CI [−63.3; −39.5]) for the elafibranor 80 mg treatment group and −43.9% (95% CI [−55.8; −31.9]) for the elafibranor 120 mg treatment group.
The percentage of patients was calculated who met the definition of PBC responder criteria applying the Paris I, Toronto I, Toronto II, […], Mayo II, and Barcelona disease prognostic risk criteria. Paris I risk scores were defined as ALP≤3×ULN and AST≤2×ULN and bilirubin within normal limits.
Paris II risk scores were defined as ALP≤1.5×ULN and AST≤1.5×ULN and bilirubin within normal limits.
Toronto I risk scores were defined as ALP≤1.67×ULN.
Toronto II risk scores were defined as ALP≤1.75×ULN.
Considering that pruritus is a preeminent adverse event in subjects with PBC, assessment of pruritus was also considered. More specifically, the change from baseline in pruritus (through 5D-itch scale (measuring the degree, duration, direction [improvement or worsening], disability [effect on daily activities], and distribution of itching) and visual analogue scale for pruritus (VAS).
The 5D-itch scale is a reliable, multidimensional measure of itching that has been validated in patients with chronic pruritus to detect changes over time (Elman S, et al., The 5-D itch scale: a new measure of pruritus. Br J Dermatol. 2010; 162(3):587-593). The VAS is a reliable and validated method of pruritus assessment (Reich A, et al., Visual analogue scale: evaluation of the instrument for the assessment of pruritus. Acta Derm Venereol. 2012; 92(5):497-501).

[2] = test system: patients with PBC with an inadequate response or intolerance to Ursodeoxycholic acid (UDCA); assay: Phase 3 double-blind, randomized, placebo-controlled trial in PBC; assay type: in vivo, human; conditions: 80 mg once daily
Method: This example describes a double-blind, randomized, placebo-controlled trial to evaluate the efficacy and safety of elafibranor 80 mg once daily (qd) versus placebo in a PBC population.
The study included a screening visit, followed by 52 weeks of double-blind treatment period. Patients attended study visits at randomization, Week 4, 13, 26, and 39 during the treatment period.
as §2, with “80” for “80 mg or 120”, “52” for “12”, “(Formulation 4).” for “(Formulations 4 and 3).”, “elafibranor” for “elafibranor 120 mg and”
The primary objectives were to compare the effect of daily oral administration of elafibranor 80 mg on changes in relevant biochemical indicators of cholestasis or in pruritus to that of placebo in patients with PBC with an inadequate response or intolerance to Ursodeoxycholic acid (UDCA).

[3] = test system: liver function of subjects; assay: Phase 2a clinical studies and Phase 2b clinical trial, liver function; assay type: in vivo, human; conditions: 80 mg/day for 1 to 3 months (Phase 2a); 80 mg/day and 120 mg/day for 12 months (Phase 2b)
[4] = test system: patients with PBC with an inadequate response or intolerance to Ursodeoxycholic acid (UDCA); conditions: phase 3 trial NCT04526665, N Engl J Med 2023; cited from earlier work
[5] = Particle size analysis of jet-milled (micronized) elafibranor; assay type: physicochemical
From the text: Particle size of agglomeration was identified as playing a primary role in the dissolution and variability in the blend uniformity and content uniformity of tablet formulations. In order to obtain suitable particle size distribution, milling of elafibranor was investigated. The micronisation process acts to accelerate grains of powder, with an air jet, in a tornado like flow path within the micronisation chamber of the mill. As particles travel in the circular path, they collide, which leads to a reduction in particle size. Centrifugal force directs larger particles to the outside of the chamber and smaller particles are concentrated in the centre of the mill where they can be transferred to the outlet when the appropriate particle size has been reached.
The micronisation process of elafibranor has been performed with the following jet-mill equipment: Microniser Alpine 200 Aeroplex in ambient conditions of temperature and hygrometry.
The feeder delivers the dosage to the microniser by two screws. This system allows a regularity of the flow. A disposable sleeve is used to separate the air and the micronised product at the end of the microniser.
The micronised elafibranor powder is then collected into polyethylene bags and the obtained weight at the end of the micronisation operation has been recorded.
acceptance criteria: D50%≤5 μm and D90%≤15 μm

[6] = mean of clinical batches #1 to #7

CSc1ccc(C(=O)/C=C/c2cc(C)c(OC(C)(C)C(=O)O)c(C)c2)cc1 [elafibranor, 2-[2,6-dimethyl-4-[(E)-3-(4-methylsulfanylphenyl)-3-oxoprop-1-enyl]phenoxy]-2-methylpropanoic acid]
dose up to which no sign of toxicity was detected (rat): ≥ 1000 mg/kg
dose up to which no sign of toxicity was detected (mouse): ≥ 1000 mg/kg
treatment effect estimate vs placebo, relative change from baseline in serum ALP (primary analysis, non-parametric randomization-based ANCOVA) ([1]; 80 mg once daily per os, 12 weeks (Formulation 4 tablets)): −52.0%
mean relative change from baseline to endpoint in serum ALP ([1]; 80 mg once daily): −48.3%
median relative change from baseline to endpoint in the pruritus VAS ([1]; 80 mg once daily): −23.7%
treatment effect estimate vs placebo, serum ALP (supportive analysis, ANCOVA with baseline ALP as covariate) ([1]; 80 mg once daily): −51.4%
mean relative change from baseline to endpoint in GGT ([1]; 80 mg once daily): −37.1%
treatment effect estimate vs placebo, GGT (non-parametric randomization-based ANCOVA) ([1]; 80 mg once daily): −38.6%
response rates defined by at least 10%, 20% and 40% decrease in ALP from baseline to endpoint, compared to placebo ([1]; 80 mg once daily): statistically significantly greater proportion of responders
response rate as defined by Paris I risk scores (ALP≤3×ULN, AST≤2×ULN, bilirubin within normal limits) ([1]; 80 mg once daily): 80.0%
response rate as defined by Paris II risk scores (ALP≤1.5×ULN, AST≤1.5×ULN, bilirubin within normal limits) ([1]; 80 mg once daily): 53.3%
response rate as defined by Toronto I risk scores (ALP≤1.67×ULN) ([1]; 80 mg once daily): 66.7%
response rate as defined by Toronto II risk scores (ALP≤1.75×ULN) ([1]; 80 mg once daily): 66.7%
treatment effect estimate vs placebo, relative change from baseline in serum ALP (primary analysis, non-parametric randomization-based ANCOVA) ([1]; 120 mg once daily per os, 12 weeks (Formulation 3 tablets)): −43.9%
mean relative change from baseline to endpoint in serum ALP ([1]; 120 mg once daily): −40.6%
median relative change from baseline to endpoint in the pruritus VAS ([1]; 120 mg once daily): −49.5%
treatment effect estimate vs placebo, serum ALP (supportive analysis, ANCOVA with baseline ALP as covariate) ([1]; 120 mg once daily): −43.9%
mean relative change from baseline to endpoint in GGT ([1]; 120 mg once daily): −40.0%
treatment effect estimate vs placebo, GGT (non-parametric randomization-based ANCOVA) ([1]; 120 mg once daily): −39.9%
response rates defined by at least 10%, 20% and 40% decrease in ALP from baseline to endpoint, compared to placebo ([1]; 120 mg once daily): statistically significantly greater proportion of responders
response rate as defined by Paris I risk scores (ALP≤3×ULN, AST≤2×ULN, bilirubin within normal limits) ([1]; 120 mg once daily): 78.6%
response rate as defined by Paris II risk scores (ALP≤1.5×ULN, AST≤1.5×ULN, bilirubin within normal limits) ([1]; 120 mg once daily): 50.0%
response rate as defined by Toronto I risk scores (ALP≤1.67×ULN) ([1]; 120 mg once daily): 78.6%
response rate as defined by Toronto II risk scores (ALP≤1.75×ULN) ([1]; 120 mg once daily): 78.6%
biochemical response (primary end point), patients ([2]; 52 weeks (Formulation 4), 55 of 108 patients): 51%
difference vs placebo in biochemical response ([2]; 52 weeks, 95% CI 32 to 57): 47 percentage points
patients in whom the alkaline phosphatase level normalized ([2]; at week 52): 15%
difference vs placebo in alkaline phosphatase normalization ([2]; at week 52, 95% CI 6 to 23): 15 percentage points
difference vs placebo in least-squares mean change on the WI-NRS ([2]; through week 52, moderate-to-severe pruritus, 95% CI −1.99 to 0.42, P=0.20): −0.78
least-squares mean change from baseline through week 52 on the WI-NRS ([2]; patients with moderate-to-severe pruritus): −1.93
effects on liver function, relevant to PBC [3]: Beneficial effects
improvements in relevant biochemical indicators of cholestasis vs placebo [4]: significantly greater improvements in relevant biochemical indicators of cholestasis than placebo

CSc1ccc(C(=O)/C=C/c2cc(C)c(OC(C)(C)C(=O)O)c(C)c2)cc1 [micronized elafibranor]
D50% ([5]; clinical batch #1): 2.387 μm
D90% ([5]; clinical batch #1): 6.292 μm
D50% ([5]; clinical batch #2): 3.511 μm
D90% ([5]; clinical batch #2): 10.06 μm
D50% ([5]; clinical batch #3): 2.53 μm
D90% ([5]; clinical batch #3): 6.439 μm
D50% ([5]; clinical batch #4): 4.079 μm
D90% ([5]; clinical batch #4): 10.895 μm
D50% ([5]; clinical batch #5): 2.171 μm
D90% ([5]; clinical batch #5): 6.589 μm
D50% ([5]; clinical batch #6): 2.089 μm
D90% ([5]; clinical batch #6): 6.495 μm
D50% ([5]; clinical batch #7): 2.523 μm
D90% ([5]; clinical batch #7): 6.671 μm
D50% mean [5, 6]: 2.756 μm
D90% mean [5, 6]: 7.634 μm
